Entries after “also recorded” stand apart in the source; their conditions may differ. Read-outs that look alike come from different tables or passages of the source.
How the values were obtained:
[1] = test system: A/H1N1 (Virg09) pseudovirus; test: organism not typed; assay type: cell-based, influenza A virus; conditions: for EC50: MDCK, 72 h, read-out: EC50 for A/H1N1 (Virg09) pseudovirus entry
[2] = test system: A/H5N1 (FL22, A/bald eagle/FL/W22-114/2022) pseudovirus; test: organism not typed; assay type: cell-based, influenza A virus; conditions: read-out: EC50 for A/H5N1 (FL22) pseudovirus entry
[3] = test system: H1 HA protein (strain A/California/06/09); assay type: biochemical, influenza A virus
[4] = test system: A/H1N1 virus Virg09 in Calu-3 cells; test: microbe, parasite or virus in culture; assay type: cell-based; conditions: Influenza A virus, H1N1, Calu-3, 72 h, read-out: EC50 in Calu-3 cells infected with Virg09
[5] = test system: MDCK cells; conditions: for Cytotoxicity MCC, Microscopy: dog
[6] = test system: A/H1N1 virus A/Virginia/ATCC3/2009 (Virg09); test: microbe, parasite or virus in culture; assay type: cell-based, influenza A virus
[7] = test system: A/H1N1 virus A/PR/8/34 (PR8); test: microbe, parasite or virus in culture; assay type: cell-based; conditions: Influenza A virus, MDCK
[8] = test system: A/H5N1 pseudovirus; conditions: read-out: EC50 against A/H5N1 pseudovirus; cited from earlier work
[9] = test system: A/H5N1 virus; conditions: read-out: EC50 against A/H5N1 virus; cited from earlier work
[10] = test system: A/H1N1 virus; test: microbe, parasite or virus in culture; assay type: cell-based, influenza A virus; conditions: for EC50: Influenza A virus, H1N1, MDCK, read-out: Antiviral EC50 against A/H1N1 virus
[11] = in vitro; conditions: dog
[12] = test system: H5 HA (strain A/duck/Hunan/795/2002); assay type: cell-based, influenza A virus
[13] = target: H1 HA (Influenza A virus, UniProt C3W5S1); test: cell-based
Sequence of H1 HA (C3W5S1 18-344 limits assumed): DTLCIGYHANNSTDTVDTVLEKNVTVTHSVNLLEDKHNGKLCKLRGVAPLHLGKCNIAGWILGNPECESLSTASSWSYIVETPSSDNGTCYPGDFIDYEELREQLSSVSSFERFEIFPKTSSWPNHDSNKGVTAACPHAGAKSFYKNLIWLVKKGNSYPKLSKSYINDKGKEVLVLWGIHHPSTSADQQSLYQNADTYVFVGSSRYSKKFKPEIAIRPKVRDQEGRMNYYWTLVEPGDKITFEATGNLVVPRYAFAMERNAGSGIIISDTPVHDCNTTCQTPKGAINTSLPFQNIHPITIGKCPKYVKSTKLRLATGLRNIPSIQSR
Sequence of H1 HA (C3W5S1 345-566 limits assumed): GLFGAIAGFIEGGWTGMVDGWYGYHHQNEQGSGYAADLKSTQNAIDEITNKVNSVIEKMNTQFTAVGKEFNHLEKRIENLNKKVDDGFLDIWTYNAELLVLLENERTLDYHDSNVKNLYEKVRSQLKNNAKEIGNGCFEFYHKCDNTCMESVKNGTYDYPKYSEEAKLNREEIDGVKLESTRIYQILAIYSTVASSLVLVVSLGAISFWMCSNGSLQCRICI

[14] = Influenza A virus, MDCK, read-out: Antiviral EC50 against A/H1N1 virus, Virg09 strain, MTS
[15] = Influenza A virus, MDCK, read-out: Antiviral EC50 against A/H1N1 virus, Virg09 strain, Microscopy
[16] = read-out: Antiviral EC50 against A/H1N1 virus, PR8 strain, MTS
[17] = read-out: Antiviral EC50 against A/H1N1 virus, PR8 strain, Microscopy
[18] = Influenza A virus, MDCK, read-out: Antiviral EC50 for Virg09 virus
[19] = read-out: Antiviral EC50 against A/H1N1 virus, Virg09 strain, MTS
[20] = read-out: Antiviral EC50 for PR8 virus

| Structure (SMILES) | Cytotoxicity MCC, Microscopy [5] | EC50 [6, 14] | EC50 [6, 15] | EC50 [7, 16] | EC50 [7, 17] | EC50 [6, 18] | EC50 [7, 20] | CC50 [11] | Antiviral activity against A/H1N1 virus (in words) [10] | also measured |
| --- | --- | --- | --- | --- | --- | --- | --- | --- | --- | --- |
| CCOC(=O)c1c(CSc2ccccc2)n(C)c2cc(Br)c(O)c(CN(C)C)c12 [Arbidol, reference compound] |  |  |  |  |  |  |  |  |  | Fold lower potency than VF-57a in pseudovirus entry [1]: ~20 fold; EC50 [1]: 15000 nM; EC50 ([2]; MDCK, 72 h): 10000 nM; Binding of H1 HA to stem antibody C179 after acidic incubation (pH 5.2) in presence of compound [3]: only slightly protected |
| O=C1c2c(O)c(=O)ccn2N([C@@H]2c3ccccc3SCc3c2ccc(F)c3F)[C@@H]2COCCN12 [BXA, baloxavir acid] | >0.1 µM | 3.2 ± 0.4 nM | 3.5 nM | 6.1 ± 1.7 nM | 6.1 ± 2 nM |  |  |  |  | EC50 [4]: 1.1 nM |
| O=C(NCCc1cccs1)c1cc(F)cc(C(F)(F)F)c1 [Compound 20] |  |  |  |  |  |  |  |  |  | EC50 [8]: 220 nM |
| Cc1cc(CNS(=O)(=O)c2ccc(C#N)cc2)c(C)s1 [Compound 21] |  |  |  |  |  |  |  |  |  | EC50 [9]: 470 nM |
| Cc1cc(CNC(=O)c2cc(F)cc(C(F)(F)F)c2)c(C)s1 [Compound 22, N-[(2,5-Dimethylthiophen-3-yl)methyl]-3-fluoro-5-(trifluoromethyl)benzamide] | >100 µM | 400 nM | 1700 ± 1100 nM | 1100 ± 300 nM | 1500 ± 600 nM | ~1000 nM | ~1000 nM | > 100000 nM |  | Selectivity index (ratio of CC50 to EC50, SI) [10]: > 100; Cytotoxicity at 100 μM (in words) [5]: without showing any cytotoxicity; ΔΔG (exp), change VF-57a → labelled compound [6]: 0.2 kcal/mol; ΔΔG (exp), change labelled compound → VF-57a [6]: –0.2 kcal/mol; EC50 [6, 19]: 440 ± 190 nM |
| Cc1cc(CNC(=O)c2cc(Cl)cc(C(F)(F)F)c2)c(C)s1 [Compound 23, 3-Chloro-N-[(2,5-dimethylthiophen-3-yl)methyl]-5-(trifluoromethyl)benzamide] | >100 µM | 300 nM | 710 ± 450 nM | 920 ± 190 nM | 1100 ± 200 nM | 500 nM | 1000 nM | > 100000 nM |  | EC50 [4]: 840 nM; EC50 [10]: ~800 nM; Inhibition of H5 HA cell-cell fusion at 6.3 μM [12]: partial; Inhibition of H5 HA cell-cell fusion at 25 μM [12]: almost complete; Inhibition of H5 HA cell-cell fusion at 100 μM [12]: complete inhibition; EC50 [1]: 300 nM; EC50 ([2]; MDCK, 72 h): 800 nM; EC50 [2]: 810 nM; EC50 [6, 19]: 310 ± 120 nM; Binding of H1 HA to stem antibody C179 after acidic incubation (pH 5.2) in presence of compound [3]: remained significantly higher; Effect of compound binding to HA (exposed to pH 7) on subsequent binding of antibody C179 ([3]; pH 7): no effect; EC50 [13]: 950 nM |
| Cc1cc(CNC(=O)c2cc(Br)cc(C(F)(F)F)c2)c(C)s1 [Compound 24, 3-Bromo-N-[(2,5-dimethylthiophen-3-yl)methyl]-5-(trifluoromethyl)benzamide] |  |  |  |  |  | > 100000 nM | > 100000 nM |  | abolished the antiviral activity |  |
| Cc1cc(CNC(=O)c2cc(C(F)(F)F)cc(C(F)(F)F)c2)c(C)s1 [Compound 25, N-[(2,5-Dimethylthiophen-3-yl)methyl]-3,5-bis(trifluoromethyl)benzamide] |  |  |  |  |  | > 100000 nM | > 100000 nM |  | abolished the antiviral activity |  |
| Cc1cc(Cl)cc(C(=O)NCc2cc(C)sc2C)c1 [Compound 29, 3-Chloro-N-[(2,5-dimethylthiophen-3-yl)methyl]-5-methylbenzamide] |  |  |  |  |  | > 100000 nM | > 100000 nM |  | No activity |  |
| Cc1cc(CNC(=O)c2cc(C(F)(F)F)c(F)c(F)c2F)c(C)s1 [Compound 36, N-((2,5-Dimethylthiophen-3-yl)methyl)-2,3,4-trifluoro-5-(trifluoromethyl)benzamide] |  |  |  |  |  | > 100000 nM | > 100000 nM |  | abolished the antiviral effect |  |
| Cc1cc(CNC(=O)c2cc(C(F)(F)F)cc(Cl)c2F)c(C)s1 [Compound 37, 3-Chloro-N-((2,5-dimethylthiophen-3-yl)methyl)-2-fluoro-5-(trifluoromethyl)benzamide] | 56 ± 22 µM | > 100000 nM | > 100000 nM | 2900 nM | 1600 ± 800 nM |  |  | > 100000 nM | less active |  |
| Cc1cc(CNC(=O)c2cc(Cl)c(F)c(C(F)(F)F)c2)c(C)s1 [Compound 38, 3-Chloro-N-((2,5-dimethylthiophen-3-yl)methyl)-4-fluoro-5-(trifluoromethyl)benzamide] | 40 µM | 100 nM | 3100 ± 500 nM | 270 ± 120 nM | 1600 ± 800 nM |  |  | > 100000 nM | good antiviral activity | ΔΔG (exp), change VF-57a → labelled compound [6]: –0.3 kcal/mol; ΔΔG (exp), change labelled compound → VF-57a [6]: 0.3 kcal/mol; EC50 [6, 19]: 180 ± 40 nM |
| Cc1cc(CNC(=O)c2cc(Cl)cc(C(F)(F)F)c2Cl)c(C)s1 [Compound 39, 2,5-Dichloro-N-((2,5-dimethylthiophen-3-yl)methyl)-3-(trifluoromethyl)benzamide] | 52 ± 25 µM | 820 ± 610 nM | 8100 ± 500 nM | 5900 ± 3200 nM | 11000 ± 6000 nM |  |  | > 100000 nM | less active |  |
| Cc1cc(CNC(=O)c2cc(Cl)c(F)c(C(F)(F)F)c2)cs1 [Compound 52, 3-Chloro-4-fluoro-N-((5-methylthiophen-3-yl)methyl)-5-(trifluoromethyl)benzamide] | >100 µM | > 100000 nM | > 100000 nM | 8500 ± 5600 nM | 13000 ± 8000 nM |  |  | > 100000 nM |  |  |
| Cc1cc(CNC(=O)c2cc(Cl)cc(C(F)(F)F)c2Cl)cs1 [Compound 53, 2,5-Dichloro-N-((5-methylthiophen-3-yl)methyl)-3-(trifluoromethyl)benzamide] | >100 µM | 31000 ± 3000 nM | > 100000 nM | 17000 ± 8000 nM | > 100000 nM |  |  | > 100000 nM |  |  |
| Cc1cc(CNC(=O)c2cc(F)cc(C(F)(F)F)c2)c(C)o1 [Compound 54, N-((2,5-Dimethylfuran-3-yl)methyl)-3-fluoro-5-(trifluoromethyl)benzamide] | 100 ± 0 µM | 540 ± 60 nM | 3600 ± 2800 nM | 470 ± 190 nM | 540 ± 170 nM |  |  | 79000 ± 5000 nM |  |  |
| Cc1cc(CNC(=O)c2cc(Cl)cc(C(F)(F)F)c2)c(C)o1 [Compound 55, 3-Chloro-N-((2,5-dimethylfuran-3-yl)methyl)-5-(trifluoromethyl)benzamide] | 33 ± 0 µM | 1100 ± 300 nM | > 100000 nM | 240 ± 80 nM | 540 ± 370 nM |  |  | 29000 nM |  |  |
| Cc1cc(COC(=O)c2cc(F)cc(C(F)(F)F)c2)c(C)s1 [Compound 63, (2,5-Dimethylthiophen-3-yl)methyl 3-fluoro-5-(trifluoromethyl)benzoate] |  |  |  |  |  | > 100000 nM | > 100000 nM |  | Neither the ester 63 nor the secondary amine 64 showed antiviral activity; also recorded: inactive |  |
| Cc1cc(CNCc2cc(F)cc(C(F)(F)F)c2)c(C)s1 [Compound 64, 1-(2,5-Dimethylthiophen-3-yl)-N-(3-fluoro-5-(trifluoromethyl)benzyl)methanamine] |  |  |  |  |  | > 100000 nM | > 100000 nM |  | Neither the ester 63 nor the secondary amine 64 showed antiviral activity; also recorded: inactive |  |
| Cc1cc(C(=O)NCc2cc(F)cc(C(F)(F)F)c2)c(C)s1 [Compound 65, N-(3-Fluoro-5-(trifluoromethyl)benzyl)-2,5-dimethylthiophene-3-carboxamide] |  |  |  |  |  | > 100000 nM | > 100000 nM |  | fully inactive |  |
| CC(C)c1ccccc1NCCN1CCCCC1 [RL-007, reference compound] | >40 µM | 610 ± 60 nM | 690 ± 90 nM | 1400 nM | 1500 ± 100 nM |  |  | 33000 ± 5000 nM |  | EC50 [4]: 530 nM; EC50 [10]: 600 to 1500 nM; Inhibition of H5 HA cell-cell fusion at 6.3 μM [12]: inactive; Inhibition of H5 HA cell-cell fusion at 25 μM [12]: partially effective; Inhibition of H5 HA cell-cell fusion at 100 μM [12]: complete inhibition; Fold higher activity against A/H1N1 than A/H5N1 pseudovirus [1]: ~127 fold; EC50 [1]: 79 nM; EC50 ([2]; MDCK, 72 h): 10000 nM; Binding of H1 HA to stem antibody C179 after acidic incubation (pH 5.2) in presence of compound [3]: remained significantly higher; EC50 [13]: 4100 nM |
| NC(=O)c1ncn([C@@H]2O[C@H](CO)[C@@H](O)[C@H]2O)n1 [Ribavirin, reference compound] | 80 ± 20 µM | 20000 ± 2000 nM | 25000 nM | 38000 ± 3000 nM | 27000 ± 1000 nM |  |  | > 250000 nM |  |  |

Reference: article PMC12434670 (Journal of Medicinal Chemistry, 2025)
